Experimental findings from the supplement of paper PMC11616607 are described below.

The structures appear in SMILES notation.

One experiment has as its system CAOV3. The experiment is described as follows: drug sensitivity score (DSS) from 5-point dose-response viability curve (DSS (area-under-curve based score)); higher = more sensitive (stronger growth inhibition or killing); extreme values may be limits of the assay. The following applies: exposure time: 72 h; concentration range: 5 concentrations over 10,000-fold range. In short, it runs like this:
(§1)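 For the drug sensitivity score, obtained per cell line and drug in Breeze software, larger values mean greater sensitivity. No response corresponds to a score of zero. Ovarian cancer and normal ovarian cells were seeded at 1,500 per well into 384-well plates already holding acoustically dispensed drugs (Echo 550, DMSO or water, five concentrations over a 10,000-fold range) and incubated 3 days at 37°C, 5% CO2. CellTiter-Glo luminescence on a PHERAstar FS gave the viability readout.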
Consider `CN(C)CCOc1ccc(/C(=C(/CCCl)c2ccccc2)c2ccccc2)cc1` [Toremifene], for which the drug sensitivity score amounted to 1.8. The compound `CC(C)C[C@@H](C(=O)N[C@H](C(=O)OC1CCCC1)c1ccccc1)[C@H](O)C(=O)NO` [Tosedostat] came in with a drug sensitivity score of 7.4.

For `Cc1cc(Nc2cc(N3CCN(C)CC3)nc(Sc3ccc(NC(=O)C4CC4)cc3)n2)n[nH]1` [Tozasertib], the drug sensitivity score was found to be 25.2. Compound `CC(=O)Nc1cccc(-n2c(=O)n(C3CC3)c(=O)c3c(Nc4ccc(I)cc4F)n(C)c(=O)c(C)c32)c1` [Trametinib] displayed a drug sensitivity score of 11.8. `CC1=C(/C=C/C(C)=C/C=C/C(C)=C/C(=O)O)C(C)(C)CCC1` [Tretinoin] had a drug sensitivity score of 0. In turn, `NC(=S)N/N=C/c1ncccc1N` [Triapine] gave a drug sensitivity score of 4.1.

`O=c1[nH]c(=O)n([C@H]2C[C@H](O)[C@@H](CO)O2)cc1C(F)(F)F` [Trifluridine]: the drug sensitivity score came to 3.3.

On to `O=C(CCCCCCC(=O)Nc1ccc([C@H]2O[C@@H](CSc3nc(-c4ccccc4)c(-c4ccccc4)o3)C[C@@H](c3ccc(CO)cc3)O2)cc1)NO` [Tubacin], for which the drug sensitivity score was 1.8. In the case of `CN1CCc2c(c3ccccc3n2Cc2ccc(C(=O)NO)cc2)C1` [Tubastatin A], the drug sensitivity score worked out at 0.7.

In turn, `Cc1cc(Nc2ncnc3ccc(NC4=NC(C)(C)CO4)cc23)ccc1Oc1ccn2ncnc2c1` [Tucatinib] had a drug sensitivity score of 0. The compound `Nc1cc(F)ccc1NC(=O)c1ccc(CNC(=O)/C=C/c2cccnc2)cc1` [Tucidinostat] registered a drug sensitivity score of 4.3. Consider `CN[C@@H]1C[C@H]2O[C@@](C)([C@@H]1OC)n1c3ccccc3c3c4c(c5c6ccccc6n2c5c31)C(=O)N[C@H]4O` [UCN-01], for which the drug sensitivity score came to 19.3. The same measure, in the same setting: the value for `COC(=O)c1ccc2c(c1)[nH]c1ncnc(NCCCN3CCCCC3)c12` [UM729] was 0; that for `COc1cc2c(NC3CCN(C(C)C)CC3)nc(C3CCCCC3)nc2cc1OCCCN1CCCC1` [UNC0638] was 0.1. In turn, `COc1cc2c(NC3CCN(C(C)C)CC3)nc(N3CCC(F)(F)CC3)nc2cc1OCCCN1CCCC1` [UNC0642] came in with a drug sensitivity score of 0.2. The compound `O=C(c1ccc(C(=O)N2CCC(N3CCCC3)CC2)c(Nc2ccccc2)c1)N1CCC(N2CCCC2)CC1` [UNC1215] came in with a drug sensitivity score of 0. Still for that read-out and setting: the value for `CCCCNc1ncc(C(=O)NCc2ccc(-n3ccnc3)cc2)c(NC2CCC(O)CC2)n1` (stereo unspecified) [UNC2881] was 0.2; that for `NC(=O)c1cccc(-c2cccc(OC(=O)NC3CCCCC3)c2)c1` [URB597] was 0; that for `CC(C)Nc1cc(-c2c[nH]c(C(=O)N[C@H](CO)c3cccc(Cl)c3)c2)c(Cl)cn1` [Ulixertinib] was 8.

In turn, `CC[C@@H]1CN(C(=O)NCC(F)(F)F)C[C@@H]1c1cnc2cnc3[nH]ccc3n12` [Upadacitinib] had a drug sensitivity score of 0. For the compound `Cn1ncc(Cl)c1-c1cc(C(=O)N[C@H](CN)Cc2ccc(F)c(F)c2)oc1Cl` [Uprosertib], the drug sensitivity score stood at 0.9. `CS(=O)(=O)c1ccc(-c2cnc(N)c(C(=O)Nc3ccccc3)n2)cc1` [VE-821] returned a drug sensitivity score of 0.

Regarding `O=C(O)CC1CC(c2ccccc2)=NO1` (stereo unspecified) [VGX-1027], the drug sensitivity score worked out at 0. `C=CC(=O)N1CC/C(=C\c2ccc(F)c([N+](=O)[O-])c2)C(=O)/C(=C/c2ccc(F)c([N+](=O)[O-])c2)C1` [VLX1570] returned a drug sensitivity score of 18.7. For `CNC(=O)c1ccccc1Nc1cc(Nc2ccc(N3CCOCC3)cc2OC)ncc1C(F)(F)F` [VS-4718], the drug sensitivity score came to 6.1. Regarding `CCCC(CCC)C(=O)O` [Valproic acid], the drug sensitivity score is 0. As to `CCCCC(=O)OCC(=O)[C@]1(O)Cc2c(O)c3c(c(O)c2[C@@H](O[C@H]2C[C@H](NC(=O)C(F)(F)F)[C@H](O)[C@H](C)O2)C1)C(=O)c1c(OC)cccc1C3=O` [Valrubicin], the drug sensitivity score is 10.8. `COc1cc2/c(=N/c3ccc(Br)cc3F)nc[nH]c2cc1OCC1CCN(C)CC1` [Vandetanib] came in with a drug sensitivity score of 1.7. For `CCc1c(C(=O)C(N)=O)c2c(OCC(=O)O)cccc2n1Cc1ccccc1` [Varespladib], the drug sensitivity score was determined as 0.

Regarding `C[C@@H]1COC(Nc2ccc3ncnc(Nc4ccc(OCc5nccs5)c(Cl)c4)c3c2)=N1` [Varlitinib], the drug sensitivity score was found to be 3.2. Same read-out and setting: under `Clc1ccc(Nc2nnc(Cc3ccncc3)c3ccccc23)cc1` [Vatalanib] stands 0.

In a further experiment the test system is COV318. The description is as above. The following applies: exposure time: 72 h; concentration range: 5 concentrations over 10,000-fold range. In outline: as §1
In turn, `CN(C)CCOc1ccc(/C(=C(/CCCl)c2ccccc2)c2ccccc2)cc1` [Toremifene] had a drug sensitivity score of 2.3. On the same count and under the same terms, the value for `CC(C)C[C@@H](C(=O)N[C@H](C(=O)OC1CCCC1)c1ccccc1)[C@H](O)C(=O)NO` [Tosedostat] was 0.4.

Turning to `Cc1cc(Nc2cc(N3CCN(C)CC3)nc(Sc3ccc(NC(=O)C4CC4)cc3)n2)n[nH]1` [Tozasertib], the drug sensitivity score turned out to be 1.3. In turn, `CC(=O)Nc1cccc(-n2c(=O)n(C3CC3)c(=O)c3c(Nc4ccc(I)cc4F)n(C)c(=O)c(C)c32)c1` [Trametinib] showed a drug sensitivity score of 0. The compound `CC1=C(/C=C/C(C)=C/C=C/C(C)=C/C(=O)O)C(C)(C)CCC1` [Tretinoin] yielded a drug sensitivity score of 0. `NC(=S)N/N=C/c1ncccc1N` [Triapine] showed a drug sensitivity score of 0.6. For `O=c1[nH]c(=O)n([C@H]2C[C@H](O)[C@@H](CO)O2)cc1C(F)(F)F` [Trifluridine], the drug sensitivity score was determined as 0.

With `O=C(CCCCCCC(=O)Nc1ccc([C@H]2O[C@@H](CSc3nc(-c4ccccc4)c(-c4ccccc4)o3)C[C@@H](c3ccc(CO)cc3)O2)cc1)NO` [Tubacin], the drug sensitivity score came out at 2.

`CN1CCc2c(c3ccccc3n2Cc2ccc(C(=O)NO)cc2)C1` [Tubastatin A] returned a drug sensitivity score of 0.9.

`Cc1cc(Nc2ncnc3ccc(NC4=NC(C)(C)CO4)cc23)ccc1Oc1ccn2ncnc2c1` [Tucatinib] showed a drug sensitivity score of 0. For the compound `Nc1cc(F)ccc1NC(=O)c1ccc(CNC(=O)/C=C/c2cccnc2)cc1` [Tucidinostat], the drug sensitivity score came out at 3.9.

On to `CN[C@@H]1C[C@H]2O[C@@](C)([C@@H]1OC)n1c3ccccc3c3c4c(c5c6ccccc6n2c5c31)C(=O)N[C@H]4O` [UCN-01], for which the drug sensitivity score worked out at 18.7.

The compound `COC(=O)c1ccc2c(c1)[nH]c1ncnc(NCCCN3CCCCC3)c12` [UM729] came in with a drug sensitivity score of 0. Compound `COc1cc2c(NC3CCN(C(C)C)CC3)nc(C3CCCCC3)nc2cc1OCCCN1CCCC1` [UNC0638] registered a drug sensitivity score of 0.6. Compound `COc1cc2c(NC3CCN(C(C)C)CC3)nc(N3CCC(F)(F)CC3)nc2cc1OCCCN1CCCC1` [UNC0642] had a drug sensitivity score of 0.
